# Experimental data as given in patent US5164295A, “Method for identifying amyloid protein-extracellular matrix protein affinity altering compounds” (The Upjohn Company, priority 1991, dated 1992).
# Tests used:
# [1] = target: HSPG core protein binding to AAP695 /s; test: Effect of heparin on HSPG core protein binding to immobilized AAP695 /s (ELISA); settings: heparin 400 μg/ml
# Experimental: The assay used in studying the interaction between HSPG and protein ligands was an ELISA technique. Briefly, polystyrene micro-titer plates (Linbro, Flow Lab Inc.) were coated with a 100 μl solution, containing 1 μg/ml of the protein of interest (one of the three forms of AAP or fibronectin) in 20 mM NaHCO3 buffer pH 9.6. After incubation overnight at 4° C., the plates were rinsed with 0.15M NaCl, 20 mM Tris-Cl pH 7.5 (TBS). The plates were then incubated with 150 μl of 1% BSA in TBS for 2 hours at 37° C. to block the residual hydrophobic surface on the wells. After rinsing with TBS containing 0.05% (w/v) Tween 20 (TBS-Tween), 100 μl of various concentrations of HSPG in TBS-Tween were added. […] Finally, after further washing, the bound antibodies were detected by adding an alkaline phosphatase substrate solution (100 μl) containing 2 mg/ml p-nitrophenyl phosphate, 0.1 mM ZnCl2, 1 mM MgCl2 and 100 mM glycine pH 10. […] The absorbance of the released p-nitrophenol was measured at 405 nm with a Titertek Multiscan/MCC 340 (Flow Lab. Ltd.). The amounts of HSPG bound were determined by the net OD405 after substracting the OD from the blank wells in which the HSPG incubation step was omitted. When the actual amounts of HSPG bound were to be calculated, a set of standards (0.05-50 ng/well) of HSPG in NaHCO3 buffer were pre-coated into wells on the same plates as the test proteins. […]
# [2] = target: T1, HSPG binding to AAP751 /s (Homo sapiens, UniProt P05067); test: Effect of test compounds on intact HSPG binding to immobilized AAP751 /s (ELISA); settings: for HSPG binding, % of control: AAP751
# T1 construct: maintained the entire extracellular portion of the AAP; made in house; host or cells: insect cells (recombinant baculovirus)
# Experimental: (§1) The assay comprised immobilizing AAP695 /s which was then exposed to free HSPG in the absence or presence of test compounds. Other aspects of the assay included exposing free HSPG to either immobilized AAP751 /s, or AAP770 /s, each in the absence or presence of test compounds. The assay was also performed with fibronectin as the immobilized protein in order to provide a positive control. In each case, a series of concentrations of HSPG and test compounds was used. Additionally, to determine whether or not the carbohydrate moiety of HSPG was involved in the binding to immobilized components, the carbohydrate moiety of HSPG was removed and assays were performed using the carbohydrate-free HSPG core protein. The test compounds used in experiments described here include heparin, dextran sulfate, chondroitin sulfate, dermatan sulfate, fibronectin, gelatin, bovine serum albumin (BSA), Ca^++ (CaCl2), Mg^++ (MgCl2), Mn^++ (MnCl2), Co^++ (Co(NO3)2), and Zn^++ (ZnCl2).
# (§2) The assay used in studying the interaction between HSPG and protein ligands was an ELISA technique. Briefly, polystyrene micro-titer plates (Linbro, Flow Lab Inc.) were coated with a 100 μl solution, containing 1 μg/ml of the protein of interest (one of the three forms of AAP or fibronectin) in 20 mM NaHCO3 buffer pH 9.6. After incubation overnight at 4° C., the plates were rinsed with 0.15M NaCl, 20 mM Tris-Cl pH 7.5 (TBS). The plates were then incubated with 150 μl of 1% BSA in TBS for 2 hours at 37° C. to block the residual hydrophobic surface on the wells. After rinsing with TBS containing 0.05% (w/v) Tween 20 (TBS-Tween), 100 μl of various concentrations of HSPG in TBS-Tween were added. The plates were left overnight at 4° C., to permit maximum binding of HSPG to the coated proteins. The plates were then washed extensively and incubated for 2 hours at 37° C., with 100 μl of anti-HSPG diluted in TBS-Tween containing 0.1% BSA. The plates were washed again and incubated for another 2 hours with 100 μl of goat anti-rabbit-IgG conjugated with alkaline phosphatase (1:2000 dilution) in TBS-Tween containing BSA as above. Finally, after further washing, the bound antibodies were detected by adding an alkaline phosphatase substrate solution (100 μl) containing 2 mg/ml p-nitrophenyl phosphate, 0.1 mM ZnCl2, 1 mM MgCl2 and 100 mM glycine pH 10. The plates were left at room temperature for 15-120 minutes depending on the protein tested. The enzyme reaction was stopped by addition of 50 μl of 2M NaOH. The absorbance of the released p-nitrophenol was measured at 405 nm with a Titertek Multiscan/MCC 340 (Flow Lab. Ltd.). The amounts of HSPG bound were determined by the net OD405 after substracting the OD from the blank wells in which the HSPG incubation step was omitted. When the actual amounts of HSPG bound were to be calculated, a set of standards (0.05-50 ng/well) of HSPG in NaHCO3 buffer were pre-coated into wells on the same plates as the test proteins. The incubations proceeded as described above omitting the incubation of the HSPG solution with the HSPG standard coated wells. The actual amounts of HSPG bound to the test proteins were calculated from the OD405 standard curve produced by the HSPG standards using a Titersoft II E.J.A. software program (Flow Lab. Ltd.).
# (§3) Heparin and dextran sulfate, respectively, were each used as test compounds to determine their effect on the HSPG binding to AAP forms and fibronectin. Various concentrations of heparin or dextran sulfate were added together with a constant amount of HSPG to wells coated with AAPs for fibronectin.
# [3] = system: HSPG binding to fibronectin; test: Effect of test compounds on intact HSPG binding to immobilized fibronectin (ELISA); set-up: species or system bovine; settings: for HSPG binding, % of control: fibronectin
# Experimental: as §1
# Fibronectin (from bovine plasma), heparin (grade II from porcine intestinal mucosa, average molecular weight=[…]), heparan sulfate, chondroitin sulfate, dextran sulfate, BSA, and alkaline phosphatase substrate were obtained from Sigma, St. Louis, Mo. Alkaline phosphatase conjugated goat anti-rabbit IgG was obtained from Boehringer-Manneheim, and heparitinase from ICN Biochemicals.
# as §2, §3
# [4] = target: T2, HSPG binding to AAP695 /s (Homo sapiens, UniProt P05067); test: Effect of test compounds on intact HSPG binding to immobilized AAP695 /s (ELISA); settings: for HSPG binding, % of control: AAP695
# T2 construct: maintained the entire extracellular portion of the AAP; made in house; host or cells: insect cells (recombinant baculovirus)
# Experimental: as §1, §2, §3
# [5] = test compound 500 μg/ml (Table II)
# Sequence of HSPG binding to fibronectin (P07589 with tags, fused parts or gaps DEL1267-1357/DEL1723-1812 limits assumed): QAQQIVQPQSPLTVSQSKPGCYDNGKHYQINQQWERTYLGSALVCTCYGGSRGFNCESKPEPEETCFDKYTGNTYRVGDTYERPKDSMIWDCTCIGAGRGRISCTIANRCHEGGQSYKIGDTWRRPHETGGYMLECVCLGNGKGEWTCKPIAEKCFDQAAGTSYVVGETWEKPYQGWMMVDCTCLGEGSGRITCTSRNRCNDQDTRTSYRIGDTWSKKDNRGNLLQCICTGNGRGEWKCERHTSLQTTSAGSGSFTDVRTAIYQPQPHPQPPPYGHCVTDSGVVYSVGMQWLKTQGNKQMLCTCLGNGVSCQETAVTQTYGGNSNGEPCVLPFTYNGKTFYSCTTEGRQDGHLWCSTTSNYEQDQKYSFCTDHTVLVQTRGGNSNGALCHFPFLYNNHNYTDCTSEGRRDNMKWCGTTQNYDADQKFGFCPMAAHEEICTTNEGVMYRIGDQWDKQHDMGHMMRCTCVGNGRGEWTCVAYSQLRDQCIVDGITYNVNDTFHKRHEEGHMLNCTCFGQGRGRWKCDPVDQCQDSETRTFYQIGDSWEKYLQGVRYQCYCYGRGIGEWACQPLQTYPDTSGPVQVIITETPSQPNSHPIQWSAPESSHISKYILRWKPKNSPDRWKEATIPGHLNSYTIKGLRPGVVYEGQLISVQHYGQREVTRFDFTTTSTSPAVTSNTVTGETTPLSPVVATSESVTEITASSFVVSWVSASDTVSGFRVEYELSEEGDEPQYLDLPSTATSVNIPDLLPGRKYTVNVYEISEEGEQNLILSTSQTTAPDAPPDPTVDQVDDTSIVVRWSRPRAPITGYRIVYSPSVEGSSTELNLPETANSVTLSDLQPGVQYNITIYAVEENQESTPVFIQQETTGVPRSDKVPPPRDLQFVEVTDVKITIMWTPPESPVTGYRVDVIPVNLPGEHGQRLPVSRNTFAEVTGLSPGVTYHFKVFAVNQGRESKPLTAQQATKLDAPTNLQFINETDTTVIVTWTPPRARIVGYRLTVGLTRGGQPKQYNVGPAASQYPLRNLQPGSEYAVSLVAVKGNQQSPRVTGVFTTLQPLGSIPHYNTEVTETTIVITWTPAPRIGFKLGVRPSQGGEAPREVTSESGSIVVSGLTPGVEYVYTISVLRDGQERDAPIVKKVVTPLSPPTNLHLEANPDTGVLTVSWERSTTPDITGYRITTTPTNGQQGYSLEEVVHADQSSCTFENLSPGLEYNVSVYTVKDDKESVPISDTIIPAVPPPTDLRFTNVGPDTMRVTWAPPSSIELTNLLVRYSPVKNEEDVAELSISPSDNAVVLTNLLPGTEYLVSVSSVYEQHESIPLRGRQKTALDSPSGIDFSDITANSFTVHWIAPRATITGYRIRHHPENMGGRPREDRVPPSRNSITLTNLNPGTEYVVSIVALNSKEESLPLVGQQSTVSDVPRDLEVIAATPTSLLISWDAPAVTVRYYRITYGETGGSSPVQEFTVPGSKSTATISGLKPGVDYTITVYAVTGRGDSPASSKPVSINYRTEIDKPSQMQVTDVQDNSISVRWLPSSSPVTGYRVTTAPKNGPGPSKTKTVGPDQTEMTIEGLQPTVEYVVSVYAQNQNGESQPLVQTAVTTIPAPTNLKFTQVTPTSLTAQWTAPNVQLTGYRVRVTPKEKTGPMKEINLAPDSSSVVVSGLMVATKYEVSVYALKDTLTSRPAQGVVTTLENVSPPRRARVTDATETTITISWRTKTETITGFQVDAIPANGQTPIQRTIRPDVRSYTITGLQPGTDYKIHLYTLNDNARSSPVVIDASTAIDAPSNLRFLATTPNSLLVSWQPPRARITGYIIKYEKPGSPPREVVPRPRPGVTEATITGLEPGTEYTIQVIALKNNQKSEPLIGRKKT
substance,measurement,setting,value
heparin,Ki,"[1]; calculated from Kdapp = Kdcon (1+[I]/Ki), AAP695 /s",~1.6 µM
same,increase of Kd of HSPG core protein for AAP695 /s in presence of heparin,[1],approximately ten-fold
same,mode of inhibition of HSPG binding to AAP751 /s,[2],noncompetitive
same,"Activity: binding of intact HSPG, percentage ± SD of control","[2]; AAP751 /S, addition 500 μg/ml, HSPG 2 μg/ml",69 ± 12%
same,"HSPG binding, % of control",[2]; test compound 31.2 μg/ml,89%
same,"HSPG binding, % of control",[2]; test compound 62.5 μg/ml,75%
same,"HSPG binding, % of control",[2]; test compound 125 μg/ml,84%
same,"HSPG binding, % of control",[2]; test compound 250 μg/ml,82%
same,"HSPG binding, % of control",[2]; [5],54%
same,"HSPG binding, % of control",[2]; test compound 1000 μg/ml,60%
same,"HSPG binding, % of control",[2]; test compound 2000 μg/ml,53%
same,"HSPG binding, % of control",[2]; test compound 4000 μg/ml,58%
same,effect of heparin on Kd of HSPG when using AAP751 /s,"[2]; heparin 400 μg/ml, intact HSPG or core protein",No such effect
same,mode of inhibition of HSPG binding to fibronectin,[3],noncompetitive
same,"Activity: binding of intact HSPG, percentage ± SD of control","[3]; Fibronectin, addition 500 μg/ml, HSPG 2 μg/ml",71.7 ± 4.9%
same,"HSPG binding, % of control",[3]; test compound 31.2 μg/ml,93%
same,"HSPG binding, % of control",[3]; test compound 62.5 μg/ml,91%
same,"HSPG binding, % of control",[3]; test compound 125 μg/ml,73%
same,"HSPG binding, % of control",[3]; test compound 250 μg/ml,85%
same,"HSPG binding, % of control",[3]; [5],79%
same,"HSPG binding, % of control",[3]; test compound 1000 μg/ml,79%
same,"HSPG binding, % of control",[3]; test compound 2000 μg/ml,77%
same,"HSPG binding, % of control",[3]; test compound 4000 μg/ml,74%
same,mode of inhibition of HSPG binding to AAP695 /s,[4],probably competitive
same,"Activity: binding of intact HSPG, percentage ± SD of control","[4]; AAP695 /S, addition 500 μg/ml, HSPG 2 μg/ml",10.2 ± 5.2%
same,"HSPG binding, % of control",[4]; test compound 31.2 μg/ml,29%
same,"HSPG binding, % of control",[4]; test compound 62.5 μg/ml,26%
same,"HSPG binding, % of control",[4]; test compound 125 μg/ml,16%
same,"HSPG binding, % of control",[4]; test compound 250 μg/ml,10%
same,"HSPG binding, % of control",[4]; [5],7%
same,"HSPG binding, % of control",[4]; test compound 1000 μg/ml,3%
same,"HSPG binding, % of control",[4]; test compound 2000 μg/ml,2%
same,"HSPG binding, % of control",[4]; test compound 4000 μg/ml,1%
same,Ki,"[4]; calculated from Kdapp = Kdcon (1+[I]/Ki), heparin 400 μg/ml, AAP695 /s",~5.5 µM
same,factor by which HSPG affinity for AAP-695/s is reduced,[4]; heparin 400 μg/ml,5-10
same,increase of Kd of intact HSPG for AAP695 /s in presence of heparin,[4]; heparin 400 μg/ml,approximately four-fold
same,inhibition of HSPG binding to AAP695 /s,[4]; test compound 62.5 μg/ml,75%
